What all share (assay type): cell-based
Test [1] deals with T1, DUB activity in cells (NCI-H929, Z138, MM.1S, A375) (Homo sapiens, UniProt Q93008).
T1 construct: endogenous in cells; host or cells: NCI-H929, Z138, MM.1S, A375
Kind of test: HA-Ubiquitin-Vinylsulfone (HA-Ub-VS) cell labeling assay. The following applies: compound tested at 5 μM; HA-Ub-VS labeling of USP9x in cells. The method, then: Example B-1: HA-Ubiqutin-Vinylsulfone (HA-Ub-VS) Cell Labeling
Inhibitition of DUB activity is measured in cells (NCI-H929, Z138, MM.1S, A375) using a hemaglutinin-ubiquitin-vinylsulfone (HA-Ub-VS) labeling assay. Briefly, 1-2×10^6 cells are plated in 12-well plates in 1 ml complete growth media and 250 μl of test compound in 0.5% dimethylsulfoxide (or DMSO control) is added to each well. Plates are incubated at 37° C., 5% CO2 for 2-6 hours before cells are harvested into eppendorf tubes, washed once in PBS and resuspended in 100 μl cold lysis buffer (50 mM Tris pH 8, 150 mM NaCl, 0.5% NP-40, 2 mM phenylmethylsulfonyl fluoride and complete protease inhibitor tablet). Resupended cells are frozen on dry ice, then thawed and incubated on ice for 15 minutes. Tubes are centrifuged for 10 minutes at 14,000 rpm at 4° C. and the cleared supernatants transferred to clean tubes. […] The samples are incubated 15-60 min at 37° C. before the addition of SDS gel loading buffer. Proteins are separated by SDS-PAGE, transferred to nitrocellulose and the blot probed with anti-HA antibody and anti-β-actin antibodies. The HA and β-actin antibodies are detected using secondary antibodies coupled to IRdye 800 or IRdye 680 and visualized and quantitated using the LiCor Odyssey machine.
(§1) The following compounds were tested in the above assays at 5 μM: […]

Test [2] deals with PARP cleavage in cells (NCI-H929, Z138, MM.1S, A-375). Kind of test: Analysis of PARP cleavage by Western blotting. The settings on record: compound tested at 5 μM; Western blot. The protocol: (§2) Example B-2: Analysis of Md-1 Expression and PARP Cleavage
(§3) The ability of test compounds to decrease expression of the tumor promoting protein, Mcl-1, and to induce the inactivation/cleavage of the PARP protein is evaluated in cells (NCI-H929, Z138, MM.1S, A-375) by Western blotting. Cells are plated and treated as described in the HA-Ub-VS cell labeling assay (see above). A portion of the cleared lysate (15-50 μl) is run on an SDS-polyacrylamide gel to separate proteins and then transferred to nitrocellulose. After transfer to nitrocellulose, the proteins are detected by probing the blot with anti-Mcl-1 and anti-PARP antibodies followed by secondary antibodies coupled to IRdye 800 and IRdye 680 and visualization and quantitation using a LiCor Odyssey machine. Activity of the test compound is identified as a significant decrease in Mcl-1 expression relative to the vehicle treated cells and to the appearance of a cleaved fragment of PARP relative to the vehicle-treated cells.
as §1

Test [3] relates to Mcl-1 expression in cells (NCI-H929, Z138, MM.1S, A-375). Kind of test: Analysis of Mcl-1 expression by Western blotting. The following applies: compound tested at 5 μM; Western blot. The method, then: as §2, §3, §1

T1 sequence (Q93008 whole entry): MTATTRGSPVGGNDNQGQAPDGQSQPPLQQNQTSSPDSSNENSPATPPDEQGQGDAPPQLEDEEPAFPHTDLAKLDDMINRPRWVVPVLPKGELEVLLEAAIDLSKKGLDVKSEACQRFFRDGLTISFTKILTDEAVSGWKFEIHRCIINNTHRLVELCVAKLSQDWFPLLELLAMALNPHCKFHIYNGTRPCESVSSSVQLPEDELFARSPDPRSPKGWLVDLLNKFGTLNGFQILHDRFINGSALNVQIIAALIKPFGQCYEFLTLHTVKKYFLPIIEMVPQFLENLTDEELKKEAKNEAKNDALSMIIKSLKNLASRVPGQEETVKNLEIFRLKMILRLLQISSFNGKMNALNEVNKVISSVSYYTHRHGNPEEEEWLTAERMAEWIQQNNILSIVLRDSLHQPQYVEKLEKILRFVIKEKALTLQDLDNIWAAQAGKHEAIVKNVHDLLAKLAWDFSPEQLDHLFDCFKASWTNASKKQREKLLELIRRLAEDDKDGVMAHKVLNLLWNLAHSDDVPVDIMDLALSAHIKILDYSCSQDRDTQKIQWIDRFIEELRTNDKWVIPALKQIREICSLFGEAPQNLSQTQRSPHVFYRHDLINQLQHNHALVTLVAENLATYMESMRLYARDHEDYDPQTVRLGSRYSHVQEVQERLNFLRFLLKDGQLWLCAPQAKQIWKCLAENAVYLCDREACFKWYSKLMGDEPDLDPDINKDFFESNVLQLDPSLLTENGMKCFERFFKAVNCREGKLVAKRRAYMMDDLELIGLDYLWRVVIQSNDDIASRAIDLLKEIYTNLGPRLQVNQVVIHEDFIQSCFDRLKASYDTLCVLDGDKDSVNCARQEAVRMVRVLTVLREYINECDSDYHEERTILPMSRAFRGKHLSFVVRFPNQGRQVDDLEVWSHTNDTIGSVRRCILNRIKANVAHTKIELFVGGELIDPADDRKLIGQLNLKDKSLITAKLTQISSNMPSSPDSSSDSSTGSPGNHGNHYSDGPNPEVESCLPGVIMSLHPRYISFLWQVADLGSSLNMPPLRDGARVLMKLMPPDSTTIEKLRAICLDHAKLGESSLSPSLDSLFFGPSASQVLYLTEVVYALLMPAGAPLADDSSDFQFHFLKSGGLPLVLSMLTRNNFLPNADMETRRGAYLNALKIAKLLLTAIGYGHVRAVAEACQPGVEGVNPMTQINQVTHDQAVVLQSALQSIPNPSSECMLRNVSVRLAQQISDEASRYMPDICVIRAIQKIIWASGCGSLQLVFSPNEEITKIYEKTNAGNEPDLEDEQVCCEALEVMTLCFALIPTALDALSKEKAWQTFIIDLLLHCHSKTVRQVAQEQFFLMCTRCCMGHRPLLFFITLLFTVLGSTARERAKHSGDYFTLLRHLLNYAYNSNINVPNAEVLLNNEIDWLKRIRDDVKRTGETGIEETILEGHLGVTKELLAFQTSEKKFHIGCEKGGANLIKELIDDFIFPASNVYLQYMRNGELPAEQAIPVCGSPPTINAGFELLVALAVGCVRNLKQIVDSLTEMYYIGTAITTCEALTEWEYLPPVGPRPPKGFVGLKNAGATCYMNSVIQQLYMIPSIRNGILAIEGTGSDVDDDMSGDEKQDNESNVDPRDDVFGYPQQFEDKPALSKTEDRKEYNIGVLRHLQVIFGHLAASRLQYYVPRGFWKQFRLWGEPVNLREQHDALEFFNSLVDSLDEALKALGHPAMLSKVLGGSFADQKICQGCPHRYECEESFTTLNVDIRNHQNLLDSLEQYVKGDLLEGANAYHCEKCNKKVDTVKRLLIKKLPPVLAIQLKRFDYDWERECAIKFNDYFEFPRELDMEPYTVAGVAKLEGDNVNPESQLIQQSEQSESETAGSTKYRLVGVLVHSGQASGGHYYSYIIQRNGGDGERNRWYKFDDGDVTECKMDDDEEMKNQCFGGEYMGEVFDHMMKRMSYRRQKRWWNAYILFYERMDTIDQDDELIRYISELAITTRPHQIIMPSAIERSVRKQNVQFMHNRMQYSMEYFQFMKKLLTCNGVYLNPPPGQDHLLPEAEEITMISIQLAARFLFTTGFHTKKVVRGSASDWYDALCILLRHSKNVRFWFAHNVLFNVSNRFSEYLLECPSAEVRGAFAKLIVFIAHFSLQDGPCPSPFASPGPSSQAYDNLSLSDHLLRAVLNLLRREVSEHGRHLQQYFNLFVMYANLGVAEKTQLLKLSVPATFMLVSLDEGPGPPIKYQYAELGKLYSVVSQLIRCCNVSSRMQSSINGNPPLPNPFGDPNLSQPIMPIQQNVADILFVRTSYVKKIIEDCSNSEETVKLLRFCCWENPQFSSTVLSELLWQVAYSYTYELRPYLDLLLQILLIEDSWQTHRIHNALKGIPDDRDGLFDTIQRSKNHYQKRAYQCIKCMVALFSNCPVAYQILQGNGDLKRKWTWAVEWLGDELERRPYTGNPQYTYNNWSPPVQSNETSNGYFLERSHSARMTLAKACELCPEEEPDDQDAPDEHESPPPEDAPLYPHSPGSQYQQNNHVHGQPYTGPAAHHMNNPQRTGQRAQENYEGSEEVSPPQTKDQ

As a reminder, the inhibition is the relative decrease from the control value, in per cent. A high value points to strong suppression. Take `N#C/C(=C\c1cccc(Br)n1)C(=O)NC1(c2ccc(C#CCNCCO)cc2)CCCC1` [Compound 78, (E)-3-(6-bromopyridin-2-yl)-2-cyano-N-(1-(4-(3-((2-hydroxyethyl)amino)prop-1-yn-1-yl)phenyl)cyclopentyl)acrylamide]: the inhibition at 5 µM is 50 to 75% in test [1] and under 25% in test [3]. Moreover, the “PARP cleavage % Inhibition” value in test [2] is “B (B is 50% to 75% inhibition)”.
As to `COc1ncccc1-c1ccc(C2(NC(=O)/C(C#N)=C/c3ncc(Br)cc3Br)CCCC2)cc1` [Compound 53, (E)-2-cyano-3-(3,5-dibromopyridin-2-yl)-N-(1-(4-(2-methoxypyridin-3-yl)phenyl)cyclopentyl)acrylamide], the inhibition at 5 µM in test [1] was under 25%; in test [3], 50 to 75%. The “PARP cleavage % Inhibition” value in test [2] is “A (A is ≧75% inhibition)”.
For `N#C/C(=C\c1ncc(Br)cc1Br)C(=O)NC1(c2ccc(-c3cccnc3)cc2)CCCC1` [Compound 39, (E)-2-cyano-3-(3,5-dibromopyridin-2-yl)-N-(1-(4-(pyridin-3-yl)phenyl)cyclopentyl)acrylamide] the same measures were 50 to 75%, at least 75% and “A (A is ≧75% inhibition)”.
On to `N#C/C(=C\c1cccc(C#CC2(O)CCCC2)n1)C(=O)NC1(c2ccncc2)CCCC1` [Compound 3-5], for which the inhibition at 5 µM in test [1] and in test [3] was under 25% each time. Moreover, in test [2], the “PARP cleavage % Inhibition” value is “D (D is <25% inhibition)”.
Turning to `CCOC(=O)c1cccc(-c2cccc(/C=C(\C#N)C(=O)NC3(c4ccccc4)CCCC3)n2)c1F` [Compound 60], the inhibition at 5 µM was 50 to 75% in test [1] and at least 75% in test [3]. Also, in test [2], the “PARP cleavage % Inhibition” value is reported as “A (A is ≧75% inhibition)”.
The corresponding values for `N#C/C(=C\c1cccc(Br)n1)C(=O)NC1(c2cccc(CO)c2)CCCC1` [Compound 81, (E)-3-(6-bromopyridin-2-yl)-2-cyano-N-(1-(3-(hydroxymethyl)phenyl)cyclopentyl)acrylamide] are 50 to 75%, 25 to 50% and “A (A is ≧75% inhibition)”.
Take `N#C/C(=C\c1nc(Cl)ccc1Cl)C(=O)NC1(c2ccccc2)CCCC1` [Compound 7, (E)-3-(3,6-Dichloropyridin-2-yl)-2-cyano-N-(1-phenylcyclopentyl)acrylamide]: the inhibition at 5 µM was 50 to 75% in test [1] and at least 75% in test [3]. In addition, the “PARP cleavage % Inhibition” value in test [2] is on record as “A (A is ≧75% inhibition)”.
For `N#C/C(=C\c1ncccc1Br)C(=O)NC1(c2ccccc2)CCCC1` [Compound 46, (E)-3-(3-bromopyridin-2-yl)-2-cyano-N-(1-phenylcyclopentyl)acrylamide] the same measures were 50 to 75%, 50 to 75% and “A (A is ≧75% inhibition)”.
Turning to `N#C/C(=C\c1cccc(C2CC2)n1)C(=O)NC1(c2ccc(-c3cccc(C(=O)O)c3)cc2)CCCC1` [Compound 82, (E)-4′-(1-(2-cyano-3-(6-cyclopropylpyridin-2-yl)acrylamido)cyclopentyl)-[1,1′-biphenyl]-3-carboxylic acid], the inhibition at 5 µM is under 25% in test [1] and 50 to 75% in test [3]. The “PARP cleavage % Inhibition” value in test [2] was “A (A is ≧75% inhibition)”.
For the molecule `N#C/C(=C\c1cccc(Br)n1)C(=O)NC1(c2ccc(Br)cc2)CCCC1` [Compound 15, (E)-N-(1-(4-bromophenyl)cyclopentyl)-3-(6-bromopyridin-2-yl)-2-cyanoacrylamide], the inhibition at 5 µM in test [1] and in test [3] was at least 75% each time. The “PARP cleavage % Inhibition” value in test [2] is “A (A is ≧75% inhibition)”.
For the molecule `N#C/C(=C\c1cccc(Br)n1)C(=O)NC1(c2ccc(C#CC3(O)COC3)cc2)CCCC1` [Compound 75, (E)-3-(6-bromopyridin-2-yl)-2-cyano-N-(1-(4-((3-hydroxyoxetan-3-yl)ethynyl)phenyl)cyclopentyl)acrylamide], the inhibition at 5 µM in test [1] was 50 to 75%; in test [3], at least 75%. Moreover, in test [2], the “PARP cleavage % Inhibition” value is “A (A is ≧75% inhibition)”.
As for `N#C/C(=C\c1cccc(-c2cccc(C(=O)O)c2F)n1)C(=O)NC1(c2ccccc2)CCCC1` [Compound 89, (E)-3-(6-(2-cyano-3-oxo-3-((1-phenylcyclopentyl)amino)prop-1-en-1-yl)pyridin-2-yl)-2-fluorobenzoic acid], the inhibition at 5 µM in test [1] and in test [3] was under 25% each time. Besides, the “PARP cleavage % Inhibition” value in test [2] is “C (C is 25% to 50% inhibition)”.
Turning to `COC(=O)c1cccc(C2(NC(=O)/C(C#N)=C/c3cccc(Br)n3)CCCC2)c1` [Compound 48, (E)-methyl 3-(1-(3-(6-bromopyridin-2-yl)-2-cyanoacrylamido)cyclopentyl)benzoate], the inhibition at 5 µM in test [1] was 50 to 75%; in test [3], under 25%. For the same molecule, in test [2], the “PARP cleavage % Inhibition” value was “A (A is ≧75% inhibition)”.
As for `N#C/C(=C\c1cc(Br)ccn1)C(=O)NC1(c2ccccc2)CCCC1` [Compound 28, (E)-3-(4-bromopyridin-2-yl)-2-cyano-N-(1-phenylcyclopentyl)acrylamide], the inhibition at 5 µM in test [1] and in test [3] was under 25% throughout. Besides, in test [2], the “PARP cleavage % Inhibition” value was “D (D is <25% inhibition)”.
Turning to `CCOc1ncc(C(F)(F)F)cc1-c1cccc(/C=C(\C#N)C(=O)NC2(c3ccccc3)CCCC2)n1` [Compound 47, (E)-2-cyano-3-(2′-ethoxy-5′-(trifluoromethyl)-[2,3′-bipyridin]-6-yl)-N-(1-phenylcyclopentyl)acrylamide], the values for the inhibition at 5 µM in test [1] and in test [3] were 25 to 50% and 50 to 75%, respectively. Further, in test [2], the “PARP cleavage % Inhibition” value is recorded as “A (A is ≧75% inhibition)”.
As for `N#C/C(=C\c1cccc(-c2cnc3[nH]ccc3c2)n1)C(=O)NC1(c2ccccc2)CCCC1` [Compound 61, (E)-3-(6-(1H-pyrrolo[2,3-b]pyridin-5-yl)pyridin-2-yl)-2-cyano-N-(1-phenylcyclopentyl)acrylamide], the inhibition at 5 µM in test [1] and in test [3] was under 25% in each case. In test [2], the “PARP cleavage % Inhibition” value is recorded as “B (B is 50% to 75% inhibition)”.
For `N#C/C(=C\c1nc(Cl)ccc1Br)C(=O)NC1(c2ccccc2)CCCC1` [Compound 10, (E)-3-(3-Bromo-6-chloropyridin-2-yl)-2-cyano-N-(1-phenylcyclopentyl)acrylamide], the values for the inhibition at 5 µM in test [1] and in test [3] were 50 to 75% and at least 75%, respectively. The “PARP cleavage % Inhibition” value in test [2] is given as “B (B is 50% to 75% inhibition)”.
Consider `N#C/C(=C\c1ncc(Br)cc1Br)C(=O)NC1(c2ccc(-c3cnc4[nH]ccc4c3)cc2)CCCC1` [Compound 59, (E)-N-(1-(4-(1H-pyrrolo[2,3-b]pyridin-5-yl)phenyl)cyclopentyl)-2-cyano-3-(3,5-dibromopyridin-2-yl)acrylamide], for which the inhibition at 5 µM in test [1] and in test [3] was at least 75% each time. Further, the “PARP cleavage % Inhibition” value in test [2] is “A (A is ≧75% inhibition)”.
As for `N#C/C(=C\c1cccc(Br)n1)C(=O)NC1(c2ccncc2)CCCC1` [Compound 3-2, (E)-3-(6-bromopyridin-2-yl)-2-cyano-N-(1-(pyridin-4-yl)cyclopentyl) acrylamide], the inhibition at 5 µM is 25 to 50% in test [1] and 50 to 75% in test [3]. For the same molecule, the “PARP cleavage % Inhibition” value in test [2] is listed as “A (A is ≧75% inhibition)”.

The values are drawn from patent US20170088520A1, “DEUBIQUITINASE INHIBITORS” (PharmAkea, Inc., priority 2014, published 2017).
